Assay results reported in patent publication US20080031922A1, “Delivery System” (priority 2004, published 2008).
“And” between values parts separate entries of the source, which are not always exact repeats. Identical values can stand only once.

Tests used:
Assay type in all cases: physicochemical
[1] = in vitro release rate of danazol from intravaginal ring (IVR)
Method: The release rate of the therapeutically active substance from the device was measured in vitro as follows: The devices (implant, intravaginal ring, intracervical or intrauterine system) were attached into a stainless steel holder in vertical position and the holders with the devices were placed into glass bottles containing 75 ml of a dissolution medium, a 1 wt-% hydroxypropyl cyclodextrin solution. The glass bottles were shaked in shaking waterbath 100 rpm at 37° C. The dissolution medium was withdrawn and replaced by a fresh dissolution medium at predetermined time intervals, and the amount of the released substance was analysed by using standard HPLC methods. The concentration of the dissolution medium and the moment of change (withdrawal and replacement) of medium were selected, so that sink-conditions were maintained during the test. […] Hydroxypropyl β-cyclodextrin (HPBCD) was used as the regulating agent. Three different implants with different hydroxypropyl β-cyclodextrin (HPBCD) contents in the membrane were made and the results were compared to corresponding implants without any added HPBCD. All the implants consisted of a core containing the therapeutically active agent and a release rate-controlling membrane encasing the core. The core and the membrane silicone elastomer rods were manufactured by extrusion and the implant compositions were made by swelling the membrane in propanol, as explained above. The content of the therapeutically active agent was 20 wt-% (weight percent) in the core and the micronized hormone was mixed into the elastomer with a mixer before extrusion. The diameters of the IVR rings were ca. 50-55 mm and the periphery of the cross section ca. 9-10 mm, the thicknesses of the membranes were 0.25, 0.35 and 0.7 mm and the HPBCD contents of the membrane were 0.17 wt-%, 1.7 wt-% and 7.7 wt-% respectively. The results are shown in FIG. 1 for the daily in vitro release rate per core area (μg/(d*mm^2), shown as the y axis and days shown in the x-axis), wherein the empty triangles represent the results for 0.17 wt-% HPBCD-content in the membrane with 0.7 mm wall thickness. The empty squares illustrate the results for 1.7 wt-% HPBCD-content in the membrane with 0.35 mm wall thickness and the stars show the results for 7.7 wt-% HPBCD-content in the membrane with 0.25 mm wall thickness. The full triangles represent the comparative results for a membrane with wall thickness of 0.3 mm and the full squares illustrate the comparative results for a membrane with wall thickness of 0.9 mm.

[2] = in vitro release rate of gestodene from implant
Method: The release rate of the therapeutically active substance from the device was measured in vitro as follows: The devices (implant, intravaginal ring, intracervical or intrauterine system) were attached into a stainless steel holder in vertical position and the holders with the devices were placed into glass bottles containing 75 ml of a dissolution medium, a 1 wt-% hydroxypropyl cyclodextrin solution. The glass bottles were shaked in shaking waterbath 100 rpm at 37° C. The dissolution medium was withdrawn and replaced by a fresh dissolution medium at predetermined time intervals, and the amount of the released substance was analysed by using standard HPLC methods. The concentration of the dissolution medium and the moment of change (withdrawal and replacement) of medium were selected, so that sink-conditions were maintained during the test. The present invention was also tested with an implant containing gestodene, a synthetic progestogene hormone. The implant core and membrane rods were made with extrusion and the implant composition was made by swelling the membrane in propanol. The outer diameter of the implant core was 2.5-3.0 mm and the length 40-48 mm. The content of the therapeutically active agent in the core was 65 wt-%. The membrane thickness was 0.25 mm, inner diameter 2.35-2.65 mm, outer diameter was 3.0-3.25 mm and length 10 mm longer than the elastomer core. The HPBCD content of the implant membrane was 4 wt-%. The membrane was made of PEO-b-PDMS (15 wt-%) and PDMS (85 wt-%). The results are shown in FIG. 2 as the release rate of the therapeutically active agent (μg/d, shown in y-axis) versus time (days, shown in x-axis), wherein the squares represent the results for the Reference 1, the losanges represent the results for an implant having a HPBCD-containing membrane and the triangles illustrate the results for Reference 2. Reference 1 comprises a core having an outer diameter of 2.5 mm and a length of 40 mm, and a membrane, the thickness of which is 0.25 mm. The implant having a membrane containing 1 wt-% HPBCD has a core with an outer diameter of 3.03 mm and a length of 44 mm, and the membrane wall of 0.25 mm. Reference 2 comprises a core having an outer diameter of 2.8 mm, a length of 48 mm and the membrane with a wall of 0.25 mm.

[3] = in vitro release rate of FAP from intrauterine system (IUS)
Method: The release rate of the therapeutically active substance from the device was measured in vitro as follows:
The devices (implant, intravaginal ring, intracervical or intrauterine system) were attached into a stainless steel holder in vertical position and the holders with the devices were placed into glass bottles containing 75 ml of a dissolution medium, a 1 wt-% hydroxypropyl cyclodextrin solution. The glass bottles were shaked in shaking waterbath 100 rpm at 37° C. The dissolution medium was withdrawn and replaced by a fresh dissolution medium at predetermined time intervals, and the amount of the released substance was analysed by using standard HPLC methods. The concentration of the dissolution medium and the moment of change (withdrawal and replacement) of medium were selected, so that sink-conditions were maintained during the test.
HPBCD modification was tested with a fluorinated antiprogestin derivative (FAP, 11-(4-Acetylphenyl)-17-hydroxy-17-(1,1,2,2,2-pentafluoroethyl)estra-4,9-dien-3-one) in intrauterine (IUS) system. Two samples of 1 and 4 wt-% of HPBCD content in the membrane were prepared by combining with swelling separately extruded membrane and core elastomer rods over the IUS T-frame. The swelling agent was isopropanol.
The content of the therapeutically active agent in the core elastomer was 65 wt-% and the outer diameter of the core was 2.88-2.92 mm and length 21.0-21.1 mm. The membrane was 3 mm longer than the core and the thickness of the membrane was 0,25 mm. FIG. 3 presents the release rate of the therapeutically active agent (μg/d, shown in the y-axis) from two FAP containing intrauterine systems as a function of time (days, shown in the x-axis) compared to a reference sample. Indeed, the squares represent the results for the reference sample, the losanges illustrate the results for the cyclodextrin modified membrane, when the amount of cyclodextrin was 1 wt-% and the triangles represent the results for the cyclodextrin modified membrane, when the amount of cyclodextrin was 4 wt-%.

C#C[C@]1(O)CC[C@H]2[C@@H]3CCC4=Cc5oncc5C[C@]4(C)[C@H]3CC[C@@]21C [danazol, (17alpha)-pregna-2,4-dien-20-yn[2,3-d]isoxazol-17-ol]
release rate when HPBCD is added into the membrane ([1]; HPBCD modified IVR vs reference samples): seems to be higher
release rate trend over time ([1]; HPBCD modified IVR, first two weeks, up to the zenith point): slightly increasing trend
release rate compared to ordinary ring with 0.9 mm wall ([1]; IVR with 0.17 w-% HPBCD content and 0.7 mm membrane wall, two and half week release): stays equal
initial burst without the modification relative to that found for modified samples ([1]; IVR without HPBCD (membrane wall 0.3 and 0.9 mm) vs HPBCD modified samples, FIG. 1): five to ten times
initial burst without the modification relative to the release rate in two weeks dissolution ([1]; IVR without HPBCD (membrane wall 0.3 and 0.9 mm), FIG. 1): three to five times
initial burst effect ([1]; IVR, all HPBCD modified samples (0.17, 1.7, 7.7 wt-% HPBCD in membrane; wall 0.7, 0.35, 0.25 mm), 1 wt-% hydroxypropyl cyclodextrin medium, 37° C, FIG. 1): negative initial burst effect

C#C[C@]1(O)C=C[C@H]2[C@@H]3CCC4=CC(=O)CC[C@@H]4[C@H]3CC[C@@]21CC [gestodene]
total decrease of release in 14 days ([2]; both reference samples (implants without HPBCD in membrane), FIG. 2): 30%
total decrease of the gestodene release from the second to the third week ([2]; implant with cyclodextrin (HPBCD) modified membrane): 0.5%
maximum decrease of release in two weeks ([2]; implant with cyclodextrin (HPBCD) modified membrane, FIG. 2): ca. 6%
decrease of the gestodene release from the second to the third week ([2]; reference samples (implants without HPBCD in membrane)): 8.4% and 11%

CC(=O)c1ccc(C2C[C@@]3(C)[C@@H](CCC3(O)C(F)(F)C(F)(F)F)[C@@H]3CCC4=CC(=O)CCC4=C23)cc1 (stereo partly drawn) [FAP, 11-(4-Acetylphenyl)-17-hydroxy-17-(1,1,2,2,2-pentafluoroethyl)estra-4,9-dien-3-one]
burst effect ([3]; amount of cyclodextrin in membrane 1 wt-%): still some burst effect remaining
level of the release rate ([3]; amount of cyclodextrin in the membrane 4 wt-% (vs 1 wt-%)): higher
release rate profile compared to reference sample ([3]; both cyclodextrin modified samples (1 and 4 wt-%)): higher
initial burst ([3]; both cyclodextrin-modified membranes (1 and 4 wt-% HPBCD) vs reference sample, FIG. 3): decreased
shape of the curve of the release rate after two days ([3]; reference and modified samples compared): similar
